In US11234960B2, “Compositions and methods for improving mitochondrial function and treating neurodegenerative diseases and cognitive disorders” (Amazentis SA, priority 2010, dated 2022):

Experiments:
[1] = tested on: aged C. elegans (wild-type Bristol N2); assay: Oxygen consumption (Seahorse XF24) in aged C. elegans; format: in vivo; details: 10-day-old worms, 30 μM urolithin A in 0.1% DMSO, 30 minute period (FIGS. 25A, 25B)
Method: C. elegans strains were cultured at 20° C. on nematode growth media (NGM) agar plates seeded with E. coli strain OP50. Strain used was wild-type Bristol N2 provided by the Caenorhabditis Genetics Center (University of Minnesota). Urolithin A was dissolved in DMSO. Animals were exposed to compounds from eggs on plates seeded with live OP50 bacteria. Control plates were prepared with the corresponding concentration of DMSO (0.1%).
Measurement of oxygen consumption is a direct indicator of mitochondrial activity. The effect of urolithin A on mitochondrial activity in aged C. elegans (10 days old) was assessed by treating C. elegans with urolithin A for 10 days of adulthood, at which time oxygen consumption was measured using the Seahorse XF24 equipment (Seahorse Bioscience Inc., North Billerica, Mass.). 250 ten-day-old C. elegans were used per condition. […] Worms were transferred into 24-well standard Seahorse plates (#100777-004) (50 worms per well) and oxygen consumption was measured. The basal oxygen consumption of the worms was first measured over 30 minutes at 5 minute intervals (0 min, 5 min, 15 min, 20 min, 25 min and 30 min) with 5 replicates per interval. Respiration rates were normalized to the exact number of worms per well determined after the completion of the experiment using a stereomicroscope. […]

[2] = tested on: C57BL/6J mice exposed to chronic unpredictable stress; assay: Contextual fear conditioning in chronically stressed mice; format: in vivo; details: 25 mg/kg/d in diet, daily exposure for four days (FIG. 31)
Method: Three weeks before the initiation of the chronic stress protocol mice were separated into four different groups. One group received standard mouse chow diet (Control), while the remaining three groups received varying doses of extract 1011, an extract derived from pomegranate juice. Low dose corresponded to an extract dose of 21 mg/kg/d of gallic acid equivalents of polyphenols (GAE PPE), the medium dose corresponded to an extract dose of 43 mg/kg/d of GAE PPE, the high dose corresponded to an extract dose of 86 mg/kg/d of GAE PPE (see Table 5).
Three weeks before the initiation of the chronic stress protocol, mice were separated into two groups. […]
The unpredictable chronic stress protocol involved exposing animals to a daily stressful situation at an unpredictable moment for 4 weeks (between 8 am and 4 pm, and randomly distributed over the 28 days). […] All animals were weighed and the state of their coat was evaluated on a regular basis (every 3-5 days). […]
Contextual fear conditioning was used to test the effect of pomegranate extract on anxiety induction (i.e., learned anxiety) in mice in response to contextual recognition. […] To determine the effect of chronic stress and the various doses of pomegranate extract on the level of anxiety induced by this contextual memory, the level of anxiety-induced behavior in response to this context was measured. […]

O=c1oc2cc(O)ccc2c2ccc(O)cc12 [urolithin A, 3,8-Dihydroxydibenzo-α-pyrone]
uncoupled (FCCP) respiration, oxygen consumption AUC [1]: significantly increased uncoupled respiration
extinction of memory of the adverse context (freezing) [2]: significant improvement in adverse memory extinction
